Reference: ChEMBL document CHEMBL3046727, “Antifungal and insect antifeedant 2-phenylethanol esters from the liverwort Balantiopsis cancellata from Chile” (J Agric Food Chem, 2005)
The source made the active and inactive calls. The rule behind the calls is not given here.

Tests used:
Artemia salina = test: Toxicity in Artemia salina (brine shrimp) measured after 24 hr; type: organism-based; conditions: in vivo
Spodoptera littoralis = test: Feeding deterrence in Spodoptera littoralis in compound treated lettuce disk assessed as feeding ratio measured as area consumed of treated disks per area consumed of the control disk at 20 ug/disk by disk choice assay; type: functional
Cladosporium herbarum [1] = test: Antifungal activity against Cladosporium herbarum assessed as growth inhibition at 23 degC measured after 72 hr; type: functional
Cladosporium herbarum [2] = test: Antifungal activity against Cladosporium herbarum assessed as growth inhibition at 0.006 mg/mL at 23 degC measured after 72 hr; type: functional, organism-based

SMILES | LC50 (Artemia salina) | Ratio (Spodoptera littoralis) | MIC (Cladosporium herbarum [1]) | growth inhibition (GI) (Cladosporium herbarum [2])
O=C(/C=C/c1ccccc1)OCCc1ccccc1 [PHENETHYL CINNAMATE] | < 2.5 ppm | 0.96 | – | –
Cl[C@H]1[C@H](Cl)[C@@H](Cl)[C@@H](Cl)[C@H](Cl)[C@H]1Cl [LINDANE] | 7.2 ppm | – | – | –
O=C1C2CC=CCC2C(=O)N1SC(Cl)(Cl)Cl (configuration not stated) [CAPTAN] | – | – | 0.02 mg | –
O=C(/C=C\c1ccccc1)OCCc1ccccc1 | < 2.5 ppm | 0.5 | – | –
CC(=O)N1CCN(c2ccc(OCC3COC(Cn4ccnc4)(c4ccc(Cl)cc4Cl)O3)cc2)CC1 (configuration not stated) [KETOCONAZOLE] | – | – | 0.01 mg | –
O=C(OCCc1ccccc1)c1ccccc1 [PHENETHYL BENZOATE] | < 2.5 ppm | 0.56 | 0.1 mg | –
O=C(OC[C@H](O)c1ccccc1)c1ccccc1 | 7.4 ppm | 0.73 | 0.05 mg | –
CS/C=C/C(=O)OCCc1ccccc1 [ISOTACHIN B] | < 2.5 ppm | 0.44 | 0.006 mg | Active
